Where two headings read alike, the source gives them in different places.
Columns and labels:
[1] = system: gastric acid secretion (stimulated with pentagastrin and carbachol); assay: Inhibition of Gastric Acid Secretion in the Conscious Male Rat; type: in vivo, Sprague-Dawley; conditions: 2 h, acid secretion during second hour after administration
Procedure: (§1) Since the bioavailability model described above is time and labour intensive, and requires a large number of plasma analyses, also a rough screening model, based on relative potencies to inhibit acid secretion, has been used (see for instance: A. Goth, Medical Pharmacology, 7th ed., C. V. Mosby Company, Saint Louis 1974, p 19). Thus, the ratio (called "Bioavailability" in Table 3) between the ED50 at intravenous administration and the ED50 at intraduodenal administration was calculated.
(§2) The potency for inhibition of acid secretion has been measured in the male rat and the dog, both intravenously and intraduodenally. When it comes to relevance of the animal test data for potency of a given compound in man for the present type of compounds, it is believed that potency in man will correspond to a level somewhere between what is measured in the male rat and what is measured in the dog.
(§3) Inhibition of Gastric Acid Secretion in the Conscious Male Rat.
(§4) Male rats of the Sprague-Dawley strain were used. They were equipped with cannulated fistulae in the stomach (lumen) and the upper part of the duodenum, for collection of gastric secretions and administration of test substances, respectively. A fourteen days recovery period after surgery was allowed before testing commenced.
(§5) Before secretory tests, the animals were deprived of food but not water for 20 h. The stomach was repeatedly washed through the gastric cannula, and 6 ml of Ringer-Glucose given s.c. Acid secretion was stimulated with a infusion during 3.5 h (1.2 ml/h, s.c.) of pentagastrin and carbachol (20 and 110 nmol/kg h, respectively), during which time gastric secretions were collected in 30-min fractions. Test substances or vehicle were given iv or id at 90 min after starting the stimulation, in a volume of 1 ml/kg. Gastric juice samples were titrated to pH 7.0 with NaOH, 0.1 mol/L, and acid output calculated as the product of titrant volume and concentration. Further calculations were based on group mean responses from 4-5 rats. The acid output during the periods after administration of test substances or vehicle were expressed as fractional responses, setting the acid output in the 30-min period preceding administration to 1.0. Percentage inhibition was calculated from the fractional responses elicited by test compound and vehicle. ED50 values were obtained from graphical interpolation on log dose-response curves, or estimated from single-dose experiments assuming a similar slope for all dose-response curves. An estimation of the bioavailability was obtained by calculating the ratio ED50 iv /ED50 id. The results reported are based on gastric acid secretion during the second hour after drug/vehicle administration.

[2] = as above; type: in vivo, Sprague-Dawley; conditions: in vivo, ratio ED50 iv/ED50 id, read-out: "Bioavailability" measured by the Rough Screening Model, Rat ED50 iv/ED50 id (%)
Procedure: as §1, §2, §3, §4, §5

[3] = Chemical Stability in aqueous buffer solution at pH 7; type: physicochemical; conditions: pH 7, 37° C., low concentration; for half-life: read-out: Chemical Stability at pH 7, half-life (t 1/2) (converted)
Procedure: The chemical stability of various compounds of the invention has been followed kinetically at low concentration at 37° C. in aqueous buffer solution at different pH values. The results in Table 3 show the half life (t 1/2) at pH 7, that is the time period after which half the amount of the original compound remains unchanged.

[4] = system: gastric acid secretion (stimulated with histamine dihydrochloride); assay: Inhibition of Gastric Acid Secretion in the Conscious Dog; type: in vivo, Harrier dog, either sex; conditions: for ED50: Canis lupus familiaris, dog, acid output 2 h after dosing
Procedure: as §2
Inhibition of Gastric Acid Secretion and Bioavailability in the Conscious Dog.
Harrier dogs of either sex were used. They were equipped with a duodenal fistula for the administration of test compounds or vehicle and a cannulated ventricular fistula for the collection of gastric secretions.
Before secretory tests the animals were fasted for about 18 h but water was freely allowed. Gastric acid secretion was stimulated by a 4 h infusion of histamine dihydrochloride (12 ml/h) at a dose producing about 80% of the individual maximal secretory response, and gastric juice collected in consecutive 30-min fractions. Test substance or vehicle was given id or iv 1 h after starting the histamine infusion, in a volume of 0.5 ml/kg body weight. The acidity of the gastric juice samples were determined by titration to pH 7.0, and the acid output calculated. The acid output in the collection periods after administration of test substance or vehicle were expressed as fractional responses, setting the acid output in the fraction preceding administration to 1.0. Percentage inhibition was calculated from fractional responses elicited by test compound and vehicle. ED50 --values were obtained by graphical interpolation on log dose-response curves, or estimated from single-dose experiments under the assumption of the same slope of the dose-response curve for all test compounds. All results reported are based on acid output 2 h after dosing.

[5] = Bioavailability in the Male Rat (AUC method); type: in vivo, Sprague-Dawley; conditions: blood, 4 umol/kg, AUC id vs iv, 4 μmol/kg, read-out: Bioavailability measured by the AUL-method, F %, Rat
Procedure: Bioavailability is assessed by calculating the quotient between the area under plasma concentration (AUC) curve following intraduodenal (id) administration and intravenous (iv) administration from the rat or the dog. Low, therapeutically relevant doses, were used. This method is scientifically recognized as valid for assessing bioavailability (see for instance: M. Rowland and T.N. Tozer, Clinical Pharmacokinetics, 2nd ed., Lea & Febiger, London 1989, p 42). Bioavailability in the Male Rat. Male adult rats of the Sprague-Dawley strain were used. One day, prior to the experiments, all rats were prepared by cannulation of the left carotid artery under anaesthesia. The rats used for the intravenous experiments, were also cannulated in the jugular vein. (Ref. V Popovic and P Popovic, J Appl Physiol 1960;15,727-728). The rats used for the intraduodenal experiments, were also cannulated in the upper part of the duodenum. The cannulas were exteriorized at the nape of the neck. […] The area under the blood concentration vs time curve, AUC, was determined by the linear trapezoidal rule and extrapolated to infinity by dividing the last determined blood concentration by the elimination rate constant in the terminal phase. The systemic bioavailability (F %) following intraduodenal administration was calculated as [formula]

[6] = route id (intraduodenal), read-out: Inhibition of acid secretion, Rat ED50, id
[7] = route iv, read-out: Inhibition of acid secretion, Rat ED50, iv
[8] = route id (intraduodenal), Ref. value: estimated from one dog (footnote 1), read-out: Inhibition of acid secretion, Dog ED50, id

Row | SMILES | ED50 [1, 6] [µmol/kg] | ED50 [1, 7] [µmol/kg] | bioavailability [2] [%] | Chemical Stability at pH 7, half-life (t 1/2) [3] [h] | half-life [3] [h] | ED50 [4, 8] [µmol/kg] | effect on acid secretion at 1.0 μmol/kg ([4]; Dog 1, 1.0 μmol/kg, id) | inhibition of acid secretion at 2.0 μmol/kg ([4]; Dog 2, 2.0 μmol/kg, id) [%] | bioavailability [5] [%] | ED50 ([4]; route iv, Example 1 value: only one dog (footnote 2), read-out: Inhibition of acid secretion, Dog ED50, iv) [µmol/kg]
1 | COc1ccnc(C[S+]([O-])c2nc3cc(F)ccc3[nH]2)c1OC (centres unmarked) [Ref., 5-fluoro-2-[[(3,4-dimethoxy-2-pyridinyl)methyl]sulfinyl]-1H-benzimidazole] | 1.75 | 0.85 | 49 | 58 | 58 | 1.1 | no effect | 70 | 47 | 
2 | COc1ccnc(C[S+]([O-])c2nc3cc(Cl)ccc3[nH]2)c1OC (centres unmarked) [Example 1, 5-chloro-2-[[(3,4-dimethoxy-2-pyridinyl)methyl]sulfinyl]-1H-benzimidazole] | 2.6 | 1.3 | 50 | 30 | 30 | 1.2 |  |  | 97 | 1.75

— patent US5019584A, “Therapeutically active chloro substituted benzimidazole” (priority 1988, dated 1991)
